In one series the test system is anesthetized guinea pigs. Put plainly: PR interval (AV nodal conduction) in anesthetized, paced guinea pigs. Type of series: in vivo. Conditions: metoprolol 0.1 mg/kg iv bolus. The source says:
Male guinea pigs weighing 400–450 gm were obtained from Simonsen labs and housed in the institutional laboratory animal facility. Animals were anesthetized with isoflurane in the anesthetizing chamber. After determining (by toe pinch) that the animal is adequately anesthetized, the animals was intubated with an endotracheal tube and ventilated with isoflurane and oxygen mixture using anesthesia workstation. Using sterile equipment and aseptic technique, the right carotid artery was exposed and a catheter inserted for recording of blood pressure (BP). A quadripolar electrode catheter was introduced via the right jugular vein and positioned in the right atrium and ventricle for atrial and ventricular pacing. The hearts were paced at a constant rate (330–360 bpm) to eliminate the effect of heart rate variability between animals. Another catheter was inserted into the left jugular vein and positioned in the right atrium for the administration of drugs and saline. Subcutaneous needles were used as standard electrocardiographic leads to record the electrocardiogram (ECG). After completion of surgery and instrumentation, a 20 min equilibration period was allowed before beginning the experimental protocol. […] When the two agents were given in combination the PR interval was increased up to 15 msec. […] Esmolol was administered at three different infusion rates. […]

A further series deals with awake rats. Put plainly: Telemetry studies of heart rate in awake rats. Type of series: in vivo, Rats (Sprague Dawley). On the procedure: Rats (Sprague Dawley) weighing 300–400 gms were purchased from Simonsen laboratories. CVT-3619 was dissolved in DMSO and further diluted in saline. CVT-510 was dissolved in saline. Ketamine was purchased from Fort Dodge Animal Health, Xylazine from Bayer and Acepromazine Maleate from Fermenta Animal Health Co. Metoprolol and propranolol were purchased from SIGMA. Esmolol was obtained from a local pharmacy.
For these studies, rats were instrumented with radiotelemetered transmitters (Data Sciences) at least 3 weeks prior to experimentation. Animals were anesthetized by peritoneal injection of a “cocktail” (1 ml/kg) containing Ketamine (75 mg/ml), Xylazine (5 mg/ml), and Acepromazine (1 mg/ml). After 20–30 minutes of induction of anesthesia, a midline laparotomy was performed. The transmitter for recordings of ECG, blood pressure and body temperature was placed in the abdominal cavity, and secured to the abdominal muscles. Two electrocardiographic leads were tunneled through the subcutaneous—one toward the upper left shoulder and the other to the right thigh, and secured with sutures. A fluid filled sensor catheter was inserted in the descending aorta above the iliac bifurcation for measurement of blood pressure. The tip of the telemetry catheter was located in the abdominal aorta just caudal to the renal arteries. Once the transmitter and leads were in place and determined to be functioning properly, the abdominal wall was sutured. After recovery from anesthesia, the rats were housed individually in cages placed on their respective receivers. The ECG, blood pressure and temperature were recorded and heart rate measured by a Dataquest ART Gold system (Version 2.2; Data Sciences Intl). The system consisted of a transmitter, i.e., biopotential sensor (Model TL11M2-C50-PXT), receivers (Model RPC-1), a consolidation matrix (BCM 100), a personal computer (Compaq DeskPro Series 3574) and Dataquest 4 software. Heart rate, blood pressure and temperature were measured at 5-minute intervals. Each recording lasted 10 seconds and all cardiac cycles within this period were averaged. Animals were given various drugs in a randomized manner after recording the baseline data for at least two hours.
A subgroup of animals was implanted with osmotic pumps containing CVT-510 for combination experiments. […]
The slowing of heart rate caused by each treatment was quantified by determining the area under the curve (AUC), using the trapezoidal method for calculations. Data used for analysis was the area under/over the curve calculated using change form baseline data (untreated animals). The data was analyzed for the magnitude as well as the duration of bradycardia caused by each treatment. […]

For series [1] the following is noted: cited from earlier work.

Take `COCCc1ccc(OCC(O)CNC(C)C)cc1` (stereo not shown) [metoprolol, reference compound]: in the series on anesthetized guinea pigs, the “increase of PR interval (FIG. 9)” value was 5 ms.

Take `COC(=O)CCc1ccc(OCC(O)CNC(C)C)cc1` (stereo not shown) [esmolol, reference compound]: in the series on awake rats (esmolol 10 mg/kg ip alone, heart rate increase caused by handling), the “effect on heart rate (FIG. 3)” value is listed as “only slightly reduces the increase in heart rate”.

For `Nc1ncnc2c1ncn2[C@@H]1O[C@H](CO)[C@@H](O)[C@H]1O` [Adenosine], the half-life in series [1] is about 10 s.

As to `O[C@@H]1[C@@H](CSc2ccccc2F)OC(n2cnc3c(N[C@@H]4CCC[C@H]4O)ncnc32)[C@@H]1O` (stereo partly drawn) [CVT-3619, 2-{6-[((1R,2R)-2-hydroxycyclopentyl)amino]purin-9-yl}(4S,5S,3R)-5-[(2-fluorophenylthio)methyl]oxolane-3,4-diol], in the series with awake rats (CVT-3619 0.5 mg/kg ip alone), the “effect on heart rate (FIG. 1)” value is given as “minimal effect on heart rate”.

The values are drawn from patent US7005425B2, “Method for treating arrhythmias” (CV Therapeutics, Inc., priority 2002, dated 2006).
